The target of this test is human PDE10A (UniProt Q9Y233). The test is described as follows: Measurement of PDE activity (recombinant enzyme, HTRF cAMP kit). Format: biochemical. The settings on record: Table 1, substrate 20 nM for PDE10, 60 minutes at 29 C, read-out: IC50. The procedure, abridged: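 Recombinant human PDE10A (10–250 pM range across PDEs) with 20 nM cAMP substrate in 20 mM Tris-HCl pH 7.5, 10 mM MgCl2, 0.1% BSA, compound pre-mixed with enzyme. Ran 60 min at 29 °C. Remaining cAMP read by HTRF, converted to % of uninhibited activity, and IC50 fitted.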
Background: In TR-FRET formats the signal depends on donor and acceptor labels being close together.

Drawing on patent US20130116241A1, “NOVEL INHIBITOR COMPOUNDS OF PHOSPHODIESTERASE TYPE 10A” (AbbVie Inc., priority 2011, published 2013), this text covers IC50 for 41 compounds.

In general, pIC50 refers to the IC50 on a negative log10 scale, so that one unit is a factor of ten.

pIC50: −log10 of the molar value.

human PDE10A, sequence (Q9Y233 290-1055 limits assumed): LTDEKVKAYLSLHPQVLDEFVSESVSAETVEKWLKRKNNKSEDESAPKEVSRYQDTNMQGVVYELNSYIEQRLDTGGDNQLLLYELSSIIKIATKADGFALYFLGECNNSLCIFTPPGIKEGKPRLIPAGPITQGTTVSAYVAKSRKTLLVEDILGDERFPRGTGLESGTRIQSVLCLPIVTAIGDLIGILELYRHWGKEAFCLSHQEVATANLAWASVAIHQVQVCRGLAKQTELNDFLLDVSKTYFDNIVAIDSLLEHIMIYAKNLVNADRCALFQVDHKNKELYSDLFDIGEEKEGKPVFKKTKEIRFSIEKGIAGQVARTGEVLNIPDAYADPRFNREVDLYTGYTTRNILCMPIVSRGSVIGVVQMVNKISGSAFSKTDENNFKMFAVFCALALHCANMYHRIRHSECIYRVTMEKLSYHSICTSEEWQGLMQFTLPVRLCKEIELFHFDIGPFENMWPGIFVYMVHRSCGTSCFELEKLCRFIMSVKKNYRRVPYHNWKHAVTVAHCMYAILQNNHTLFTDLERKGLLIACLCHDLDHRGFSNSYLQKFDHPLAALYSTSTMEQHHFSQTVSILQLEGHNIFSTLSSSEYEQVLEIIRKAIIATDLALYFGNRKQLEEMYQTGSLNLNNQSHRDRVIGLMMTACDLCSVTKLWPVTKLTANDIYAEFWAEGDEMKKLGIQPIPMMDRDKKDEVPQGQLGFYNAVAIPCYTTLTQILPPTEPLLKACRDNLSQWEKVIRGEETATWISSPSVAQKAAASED

Turning to `O=c1c2c(-c3ccncc3)csc2cnn1CCc1ccc2sccc2n1` [Example 95, 3-(Pyridin-4-yl)-5-[2-(thieno[3,2-b]pyridin-5-yl)ethyl]thieno[2,3-d]pyridazin-4(5H)-one], the pIC50 was more than 7.00.
On to `O=c1c2c(-c3ccncc3)csc2cnn1CCc1cn2ccccc2n1` [Example 96, 5-[2-(Imidazo[1,2-a]pyridin-2-yl)ethyl]-3-(pyridin-4-yl)thieno[2,3-d]pyridazin-4(5H)-one], for which the pIC50 is more than 7.00.
For `O=c1c2c(-c3ccncc3)csc2cnn1CCc1cn2ccc(F)cc2n1` [Example 97, 5-[2-(7-Fluoroimidazo[1,2-a]pyridin-2-yl)ethyl]-3-(pyridin-4-yl)thieno[2,3-d]pyridazin-4(5H)-one], the pIC50 was more than 7.00.
For the compound `O=c1c2c(-c3ccncc3)cccc2cnn1CCc1ccc2ccccc2n1` [Example 98, 8-(Pyridin-4-yl)-2-[2-(quinolin-2-yl)ethyl]phthalazin-1(2H)-one], the pIC50 was more than 7.00.
In the case of `Cc1ccc(-c2cccc3cnn(CCc4ccc5ccccc5n4)c(=O)c23)cc1` [Example 100, 8-(4-Methylphenyl)-2-[2-(quinolin-2-yl)ethyl]phthalazin-1(2H)-one] it was 6.30 to 6.70; in that of `N#Cc1ccc(-c2cccc3cnn(CCc4ccc5ccccc5n4)c(=O)c23)cc1` [Example 103, 4-{4-Oxo-3-[2-(quinolin-2-yl)ethyl]-3,4-dihydrophthalazin-5-yl}benzonitrile], more than 7.00.
Turning to `COc1ccc(-c2cccc3cnn(CCc4ccc5ccccc5n4)c(=O)c23)cc1` [Example 104, 8-(4-Methoxyphenyl)-2-[2-(quinolin-2-yl)ethyl]phthalazin-1(2H)-one], the pIC50 is 6.70 to 7.00.
In the case of `O=c1c2c(-c3ccc(F)cc3)cccc2cnn1CCc1ccc2ccccc2n1` [Example 105, 8-(4-Fluorophenyl)-2-[2-(quinolin-2-yl)ethyl]phthalazin-1(2H)-one], the pIC50 is 6.70 to 7.00.
Then `N#CCc1ccc(-c2cccc3cnn(CCc4ccc5ccccc5n4)c(=O)c23)cc1` [Example 106, (4-{4-Oxo-3-[2-(quinolin-2-yl)ethyl]-3,4-dihydrophthalazin-5-yl}phenyl)acetonitrile], with more than 7.00; and `O=c1c2c(-c3ccc(O)cc3)cccc2cnn1CCc1ccc2ccccc2n1` [Example 107, 8-(4-Hydroxyphenyl)-2-[2-(quinolin-2-yl)ethyl]phthalazin-1(2H)-one], with more than 7.00; and `O=c1c2c(-c3ccccc3Cl)cccc2cnn1CCc1ccc2ccccc2n1` [Example 108, 8-(2-chlorophenyl)-2-[2-(quinolin-2-yl)ethyl]phthalazin-1(2H)-one], with 6.30 to 6.70.
Turning to `Cc1ccccc1-c1cccc2cnn(CCc3ccc4ccccc4n3)c(=O)c12` [Example 109, 8-(2-Methylphenyl)-2-[2-(quinolin-2-yl)ethyl]phthalazin-1(2H)-one], the negative logarithm of the IC50 (pIC50) was 6.30 to 6.70.
Take `O=c1c2c(-c3ccccc3F)cccc2cnn1CCc1ccc2ccccc2n1` [Example 111, 8-(2-Fluorophenyl)-2-[2-(quinolin-2-yl)ethyl]phthalazin-1(2H)-one]: the pIC50 was more than 7.00.
`COc1cccc(-c2cccc3cnn(CCc4ccc5ccccc5n4)c(=O)c23)c1` [Example 113, 8-(3-Methoxyphenyl)-2-[2-(quinolin-2-yl)ethyl]phthalazin-1(2H)-one]: the pIC50 was 6.70 to 7.00.
In the case of `N#Cc1cccc(-c2cccc3cnn(CCc4ccc5ccccc5n4)c(=O)c23)c1` [Example 114, 3-{4-Oxo-3-[2-(quinolin-2-yl)ethyl]-3,4-dihydrophthalazin-5-yl}benzonitrile], the pIC50 is 6.70 to 7.00.
As for `O=c1c2c(-c3cccc(F)c3)cccc2cnn1CCc1ccc2ccccc2n1` [Example 115, 8-(3-Fluorophenyl)-2-[2-(quinolin-2-yl)ethyl]phthalazin-1(2H)-one], the pIC50 was more than 7.00.
As to `O=c1c2c(-c3cccc(O)c3)cccc2cnn1CCc1ccc2ccccc2n1` [Example 116, 8-(3-Hydroxyphenyl)-2-[2-(quinolin-2-yl)ethyl]phthalazin-1(2H)-one], the pIC50 is more than 7.00.
Take `CN(C)C(=O)c1cccc(-c2cccc3cnn(CCc4ccc5ccccc5n4)c(=O)c23)c1` [Example 117, N,N-Dimethyl-3-{4-oxo-3-[2-(quinolin-2-yl)ethyl]-3,4-dihydrophthalazin-5-yl}benzamide]: the pIC50 was 6.70 to 7.00.
On to `O=c1c2c(-c3cccs3)cccc2cnn1CCc1ccc2ccccc2n1` [Example 119, 2-[2-(Quinolin-2-yl)ethyl]-8-(thiophen-2-yl)phthalazin-1(2H)-one], for which the pIC50 is 6.30 to 6.70.
Turning to `Cc1n[nH]c(C)c1-c1cccc2cnn(CCc3ccc4ccccc4n3)c(=O)c12` [Example 121, 8-(3,5-Dimethyl-1H-pyrazol-4-yl)-2-[2-(quinolin-2-yl)ethyl]phthalazin-1(2H)-one], the pIC50 is 6.70 to 7.00.
With `O=c1c2c(-c3ccc4[nH]ccc4c3)cccc2cnn1CCc1ccc2ccccc2n1` [Example 122, 8-(1H-Indol-5-yl)-2-[2-(quinolin-2-yl)ethyl]phthalazin-1(2H)-one], the pIC50 was 6.30 to 6.70.
Turning to `O=c1c2c(-c3ccc4cc[nH]c4c3)cccc2cnn1CCc1ccc2ccccc2n1` [Example 123, 8-(1H-Indol-6-yl)-2-[2-(quinolin-2-yl)ethyl]phthalazin-1(2H)-one], the pIC50 was 6.30 to 6.70.
For the compound `O=c1c2c(-c3cncnc3)cccc2cnn1CCc1ccc2ccccc2n1` [Example 124, 8-(Pyrimidin-5-yl)-2-[2-(quinolin-2-yl)ethyl]phthalazin-1(2H)-one], the pIC50 was more than 7.00.
As for `COc1ncccc1-c1cccc2cnn(CCc3ccc4ccccc4n3)c(=O)c12` [Example 125, 8-(2-Methoxypyridin-3-yl)-2-[2-(quinolin-2-yl)ethyl]phthalazin-1(2H)-one], the pIC50 is 6.30 to 6.70.
Turning to `O=c1c2c(-c3cccnc3)cccc2cnn1CCc1ccc2ccccc2n1` [Example 126, 8-(Pyridin-3-yl)-2-[2-(quinolin-2-yl)ethyl]phthalazin-1(2H)-one], the pIC50 was more than 7.00.
As for `O=c1c2c(-c3ccoc3)cccc2cnn1CCc1ccc2ccccc2n1` [Example 127, 8-(Furan-3-yl)-2-[2-(quinolin-2-yl)ethyl]phthalazin-1(2H)-one], the negative logarithm of the IC50 (pIC50) was more than 7.00.
Then `O=c1c2c(-c3ccc4c(c3)CCO4)cccc2cnn1CCc1ccc2ccccc2n1` [Example 130, 8-(2,3-Dihydro-1-benzofuran-5-yl)-2-[2-(quinolin-2-yl)ethyl]phthalazin-1(2H)-one], with 6.30 to 6.70.
In the case of `COc1ccc(-c2cccc3cnn(CCc4ccc5ccccc5n4)c(=O)c23)cn1` [Example 133, 8-(6-Methoxypyridin-3-yl)-2-[2-(quinolin-2-yl)ethyl]phthalazin-1(2H)-one] it was more than 7.00; in that of `Cc1cc(-c2cccc3cnn(CCc4ccc5ccccc5n4)c(=O)c23)ccn1` [Example 135, 8-(2-Methylpyridin-4-yl)-2-[2-(quinolin-2-yl)ethyl]phthalazin-1(2H)-one], more than 7.00.
With `COc1cncc(-c2cccc3cnn(CCc4ccc5ccccc5n4)c(=O)c23)c1` [Example 136, 8-(5-Methoxypyridin-3-yl)-2-[2-(quinolin-2-yl)ethyl]phthalazin-1(2H)-one], the pIC50 is more than 7.00.
In the case of `O=c1c2c(-c3cncc(F)c3)cccc2cnn1CCc1ccc2ccccc2n1` [Example 137, 8-(5-Fluoropyridin-3-yl)-2-[2-(quinolin-2-yl)ethyl]phthalazin-1(2H)-one], the pIC50 is more than 7.00.
As to `O=c1c2c(-c3ccc4c(c3)OCO4)cccc2cnn1CCc1ccc2ccccc2n1` [Example 138, 8-(1,3-Benzodioxol-5-yl)-2-[2-(quinolin-2-yl)ethyl]phthalazin-1(2H)-one], the pIC50 is 6.30 to 6.70.
Consider `Cn1cc(-c2cccc3cnn(CCc4ccc5ccccc5n4)c(=O)c23)cn1` [Example 139, 8-(1-Methyl-1H-pyrazol-4-yl)-2-[2-(quinolin-2-yl)ethyl]phthalazin-1(2H)-one], for which the pIC50 is more than 7.00.
Take `CC(C)Cn1cc(-c2cccc3cnn(CCc4ccc5ccccc5n4)c(=O)c23)cn1` [Example 140, 8-[1-(2-Methylpropyl)-1H-pyrazol-4-yl]-2-[2-(quinolin-2-yl)ethyl]phthalazin-1(2H)-one]: the pIC50 was 6.30 to 6.70.
Consider `O=c1c2c(-c3ccc(F)cc3Cl)cccc2cnn1CCc1ccc2ccccc2n1` [Example 143, 8-(2-Chloro-4-fluorophenyl)-2-[2-(quinolin-2-yl)ethyl]phthalazin-1(2H)-one], for which the pIC50 is 6.30 to 6.70.
Turning to `O=c1c2c(-c3cccc(F)c3F)cccc2cnn1CCc1ccc2ccccc2n1` [Example 147, 8-(2,3-Difluorophenyl)-2-[2-(quinolin-2-yl)ethyl]phthalazin-1(2H)-one], the pIC50 was more than 7.00.
With `COc1ccc(-c2cccc3cnn(CCc4ccc5ccccc5n4)c(=O)c23)cc1OC` [Example 148, 8-(3,4-Dimethoxyphenyl)-2-[2-(quinolin-2-yl)ethyl]phthalazin-1(2H)-one], the pIC50 is 6.70 to 7.00.
In the case of `O=c1c2c(-c3ccc(F)c(F)c3)cccc2cnn1CCc1ccc2ccccc2n1` [Example 149, 8-(3,4-difluorophenyl)-2-[2-(quinolin-2-yl)ethyl]phthalazin-1(2H)-one] it was 6.30 to 6.70.
Turning to `COc1cc(OC)cc(-c2cccc3cnn(CCc4ccc5ccccc5n4)c(=O)c23)c1` [Example 152, 8-(3,5-Fimethoxyphenyl)-2-[2-(quinolin-2-yl)ethyl]phthalazin-1(2H)-one], the pIC50 is 6.30 to 6.70.
For `O=c1c2c(-c3cc(F)ccc3F)cccc2cnn1CCc1ccc2ccccc2n1` [Example 153, 8-(2,5-Difluorophenyl)-2-[2-(quinolin-2-yl)ethyl]phthalazin-1(2H)-one], the pIC50 is 6.70 to 7.00.
As to `COc1ccc(-c2cccc3cnn(CCc4ccc5ccccc5n4)c(=O)c23)cc1F` [Example 154, 8-(3-Fluoro-4-methoxyphenyl)-2-[2-(quinolin-2-yl)ethyl]phthalazin-1(2H)-one], the pIC50 was 6.30 to 6.70.
